Measurements published in patent US11485742B2, “2-azaspiro[3.4]octane derivatives as M4 agonists” (NOVARTIS AG, priority 2019, dated 2022).

Assays:
[1] = biological target: T1, human cloned CHRM2 receptor (Homo sapiens, UniProt P08172); test: CHRM2 Ca++ Flux Assay (M2_CHO cells, agonist mode); type: cell-based; details: M2 CHO cells; for EC50: agonist mode, geometric mean if tested more than once, read-out: M2 FDSS EC50; for M2 FDSS PA % / Emax: Percent Activity (PA) measured to EC100 of Carbachol; for Emax: read-out: M2 FDSS PA %
T1 construct: expressed in transfected cells; host or cells: CHO-K1 (M2_CHO)
T1 sequence (P08172 1-466): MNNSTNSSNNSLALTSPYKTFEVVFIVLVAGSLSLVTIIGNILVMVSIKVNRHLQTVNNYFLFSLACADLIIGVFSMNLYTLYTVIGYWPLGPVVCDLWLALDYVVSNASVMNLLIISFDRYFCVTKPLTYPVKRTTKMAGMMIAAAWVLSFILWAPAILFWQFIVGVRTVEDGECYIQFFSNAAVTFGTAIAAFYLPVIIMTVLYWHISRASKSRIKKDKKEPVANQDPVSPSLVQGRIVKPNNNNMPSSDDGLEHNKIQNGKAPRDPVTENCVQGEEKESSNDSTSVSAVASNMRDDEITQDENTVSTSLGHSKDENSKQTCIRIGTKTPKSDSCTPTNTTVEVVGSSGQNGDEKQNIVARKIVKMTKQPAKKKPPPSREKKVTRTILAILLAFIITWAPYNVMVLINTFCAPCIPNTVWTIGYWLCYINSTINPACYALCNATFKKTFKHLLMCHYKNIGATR
Outline: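 Agonist activity was expressed as percent of the carbachol EC100 response, fitted by four-parameter regression on triplicate wells, with geometric means across repeat runs. Calcium traces over 3 minutes came from dye-loaded M2_CHO cells (12K/well) pre-incubated 60 min in Ca/Mg-free HBSS with 20 mM HEPES, 2.5 mM probenecid and 20 μM ATP.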

[2] = biological target: T2, human cloned CHRM5 receptor (Homo sapiens, UniProt P08912); test: CHRM5 Ca++ Flux Assay (M5_CHO cells, agonist mode); type: cell-based; details: for M5 FDSS PA % / Emax: Percent Activity (PA) measured to EC100 of Carbachol; for EC50: agonist mode, geometric mean if tested more than once, read-out: M5 FDSS EC50; for Emax: read-out: M5 FDSS PA %
T2 construct: expressed in transfected cells; host or cells: CHO (M5_CHO)
T2 sequence (P08912 1-532): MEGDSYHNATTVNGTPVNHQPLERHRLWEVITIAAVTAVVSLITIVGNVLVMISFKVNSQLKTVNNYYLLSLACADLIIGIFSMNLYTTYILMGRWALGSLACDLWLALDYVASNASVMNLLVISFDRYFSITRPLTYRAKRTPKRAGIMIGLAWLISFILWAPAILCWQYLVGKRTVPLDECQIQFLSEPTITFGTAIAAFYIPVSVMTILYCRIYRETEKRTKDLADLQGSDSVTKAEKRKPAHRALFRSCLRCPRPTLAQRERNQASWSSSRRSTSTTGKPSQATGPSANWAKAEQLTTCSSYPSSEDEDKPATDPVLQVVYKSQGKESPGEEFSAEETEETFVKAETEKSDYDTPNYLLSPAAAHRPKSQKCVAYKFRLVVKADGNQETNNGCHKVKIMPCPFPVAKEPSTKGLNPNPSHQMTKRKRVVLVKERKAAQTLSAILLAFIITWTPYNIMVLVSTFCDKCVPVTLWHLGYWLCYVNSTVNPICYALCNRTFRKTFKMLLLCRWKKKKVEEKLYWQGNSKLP
Outline: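 Agonist-mode calcium mobilisation: compounds, 11 concentrations in triplicate, applied to stable M3_CHO or M5_CHO cells loaded with Ca++ dye, fluorescence followed 3 min. Efficacy expressed against carbachol EC100; EC curves by four-parameter nonlinear regression, geometric mean across independent runs.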

Compound	EC50 [1] [µM]	M2 FDSS PA % [1] [%]	M5 FDSS PA % [2] [%]	EC50 [2] [µM]	Emax [1] [%]	Emax [2] [%]
OC[C@H]1C[C@H](Oc2ccc(F)cc2C2CCN([C@@H]3COC4(C3)CN(c3nnco3)C4)CC2)C1 (single isomer, unassigned) [Example 2II, ((1S,3r)-3-(2-(1-((S)-2-(1,3,4-oxadiazol-2-yl)-5-oxa-2-azaspiro[3.4]octan-7-yl)piperidin-4-yl)-4-fluorophenoxy)cyclobutyl)methanol or ((1R,3s)-3-(2-(1-((S)-2-(1,3,4-oxadiazol-2-yl)-5-oxa-2-azaspiro[3.4]octan-7-yl)piperidin-4-yl)-4-fluorophenoxy)cyclobutyl)methanol]	4.29	23	0	> 25	–	–
Fc1ccc(C2CCOCC2)c(C2CCN([C@@H]3COC4(C3)CN(c3nnco3)C4)CC2)c1 [Example 3D, (S)-7-(4-(5-fluoro-2-(tetrahydro-2H-pyran-4-yl)phenyl)piperidin-1-yl)-2-(1,3,4-oxadiazol-2-yl)-5-oxa-2-azaspiro[3.4]octane]	1.92	–	–	> 25	48	0
Fc1ccc(OC[C@H]2COCCO2)c(C2CCN([C@@H]3COC4(C3)CN(c3nnco3)C4)CC2)c1 [Example 1C]	0.503	–	–	> 25	29	0
Fc1ccc(OC[C@@H]2COCCO2)c(C2CCN([C@@H]3COC4(C3)CN(c3nncs3)C4)CC2)c1 [Example 5L, (S)-7-(4-(2-(((S)-1,4-dioxan-2-yl)methoxy)-5-fluorophenyl)piperidin-1-yl)-2-(1,3,4-thiadiazol-2-yl)-5-oxa-2-azaspiro[3.4]octane]	0.456	–	–	> 25	32	0
Fc1cc(OC2COC2)c(C2CCN([C@@H]3COC4(C3)CN(c3nnco3)C4)CC2)cc1F [Example 2FF, (S)-7-(4-(4,5-difluoro-2-(oxetan-3-yloxy)phenyl)piperidin-1-yl)-2-(1,3,4-oxadiazol-2-yl)-5-oxa-2-azaspiro[3.4]octane]	0.312	–	–	> 25	28	0
Fc1ccc(OC2COC2)c(C2CCN([C@@H]3COC4(C3)CN(c3nncs3)C4)CC2)c1 [Example 5G, (S)-7-(4-(5-fluoro-2-(oxetan-3-yloxy)phenyl)piperidin-1-yl)-2-(1,3,4-thiadiazol-2-yl)-5-oxa-2-azaspiro[3.4]octane]	0.657	–	–	> 25	35	0
Fc1ccc(OC[C@H]2CCO2)c(C2CCN([C@@H]3COC4(C3)CN(c3nncs3)C4)CC2)c1.O=C(O)C(F)(F)F (single isomer, unassigned) [Example 2C, (S)-7-(4-(5-fluoro-2-(((R)-oxetan-2-yl)methoxy)phenyl)piperidin-1-yl)-2-(1,3,4-thiadiazol-2-yl)-5-oxa-2-azaspiro[3.4]octane trifluoroacetate or (S)-7-(4-(5-fluoro-2-(((S)-oxetan-2-yl)methoxy)phenyl)piperidin-1-yl)-2-(1,3,4-thiadiazol-2-yl)-5-oxa-2-azaspiro[3.4]octane trifluoroacetate]	0.321	39	0	> 25	–	–
Fc1ccc(O[C@H]2CCOC2)c(C2CCN([C@@H]3COC4(C3)CN(c3nnco3)C4)CC2)c1 [Example 1H, (S)-7-(4-(5-fluoro-2-(((S)-tetrahydrofuran-3-yl)oxy)phenyl)piperidin-1-yl)-2-(1,3,4-oxadiazol-2-yl)-5-oxa-2-azaspiro[3.4]octane]	0.801	–	–	> 25	30	0
COc1ccccc1C1CCN([C@@H]2COC3(C2)CN(c2ncco2)C3)CC1 [Example 4N, (S)-7-(4-(2-methoxyphenyl)piperidin-1-yl)-2-(oxazol-2-yl)-5-oxa-2-azaspiro[3.4]octane]	> 25	–	–	> 25	0	0
Fc1ccc(OC2COC2)c(C2CCN([C@@H]3COC4(C3)CN(c3ncco3)C4)CC2)c1 [Example 4A, (S)-7-(4-(5-fluoro-2-(oxetan-3-yloxy)phenyl)piperidin-1-yl)-2-(oxazol-2-yl)-5-oxa-2-azaspiro[3.4]octane]	0.432	–	–	> 25	21	0
Fc1ccc(O[C@H]2CCCOC2)c(C2CCN([C@@H]3COC4(C3)CN(c3nnco3)C4)CC2)c1 (single isomer, unassigned) [Example 2R, (S)-7-(4-(5-fluoro-2-(((S)-tetrahydro-2H-pyran-3-yl)oxy)phenyl)piperidin-1-yl)-2-(1,3,4-oxadiazol-2-yl)-5-oxa-2-azaspiro[3.4]octane or (S)-7-(4-(5-fluoro-2-(((R)-tetrahydro-2H-pyran-3-yl)oxy)phenyl)piperidin-1-yl)-2-(1,3,4-oxadiazol-2-yl)-5-oxa-2-azaspiro[3.4]octane]	0.259	42	0	> 25	–	–
CC(C)(O)CCOc1ccc(F)cc1C1CCN([C@@H]2COC3(C2)CN(c2nncs2)C3)CC1 [Example 5P, (S)-4-(2-(1-(2-(1,3,4-thiadiazol-2-yl)-5-oxa-2-azaspiro[3.4]octan-7-yl)piperidin-4-yl)-4-fluorophenoxy)-2-methylbutan-2-ol]	9.7	–	–	> 25	25	0
c1ccc([C@@H]2CCOC2)c(C2CCN([C@@H]3COC4(C3)CN(c3nnco3)C4)CC2)c1 (single isomer, unassigned) [Example 3A, (S)-2-(1,3,4-oxadiazol-2-yl)-7-(4-(2-((S)-tetrahydrofuran-3-yl)phenyl)piperidin-1-yl)-5-oxa-2-azaspiro[3.4]octane or (S)-2-(1,3,4-oxadiazol-2-yl)-7-(4-(2-((R)-tetrahydrofuran-3-yl)phenyl)piperidin-1-yl)-5-oxa-2-azaspiro[3.4]octane]	1.57	35	0	> 25	–	–
COc1cc(F)ccc1C1CCN([C@@H]2COC3(C2)CN(c2ncns2)C3)CC1 [Example 5E, (S)-7-(4-(4-fluoro-2-methoxyphenyl)piperidin-1-yl)-2-(1,2,4-thiadiazol-5-yl)-5-oxa-2-azaspiro[3.4]octane]	> 25	–	–	13	0	0
Fc1ccc(O[C@H]2CCOC2)c(C2CCN([C@@H]3COC4(C3)CN(c3nncs3)C4)CC2)c1 [Example 5O, (S)-7-(4-(5-fluoro-2-(((S)-tetrahydrofuran-3-yl)oxy)phenyl)piperidin-1-yl)-2-(1,3,4-thiadiazol-2-yl)-5-oxa-2-azaspiro[3.4]octane]	1.17	–	–	> 25	33	0
c1ccc(C2CCN([C@@H]3COC4(C3)CN(c3nnco3)C4)CC2)c(CC2CCOCC2)c1 [Example 3G, (S)-2-(1,3,4-oxadiazol-2-yl)-7-(4-(2-((tetrahydro-2H-pyran-4-yl)methyl)phenyl)piperidin-1-yl)-5-oxa-2-azaspiro[3.4]octane]	3.66	–	–	> 25	16	0
